The source of these data is patent US20120101110A1, “Diaza-spiro[5.5]undecanes” (priority 2010, published 2012).

Molecules are shown by their SMILES. Bounds are passed on as bounds.

Assay [1] concerns the target T1, human orexin 1 receptors (Homo sapiens, UniProt O43613).
T1 sequence (O43613 1-425): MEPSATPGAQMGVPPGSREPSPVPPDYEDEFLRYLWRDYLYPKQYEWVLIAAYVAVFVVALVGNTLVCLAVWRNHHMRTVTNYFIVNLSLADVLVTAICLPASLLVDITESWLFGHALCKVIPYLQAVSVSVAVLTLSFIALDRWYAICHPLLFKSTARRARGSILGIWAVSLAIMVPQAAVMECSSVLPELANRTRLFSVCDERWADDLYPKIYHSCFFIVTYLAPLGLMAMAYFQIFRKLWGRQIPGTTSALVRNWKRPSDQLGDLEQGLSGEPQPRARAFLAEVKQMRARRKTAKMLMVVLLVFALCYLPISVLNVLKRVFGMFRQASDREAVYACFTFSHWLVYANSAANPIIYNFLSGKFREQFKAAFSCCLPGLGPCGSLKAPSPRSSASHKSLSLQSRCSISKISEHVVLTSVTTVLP
The assay can be described thus: Calcium accumulation in cells (FLIPR), hOx1R.
Method: (§4) Cells expressing human orexin 1 or human orexin 2 receptors, were seeded at 8,000 cells/well in 384 well black-walled clear bottom, poly-D-lysine coated plates. After 24 h, the medium was removed and cells were washed once with phosphate buffered saline and serum-deprived overnight in assay buffer (130 mM NaCl, 5.4 mM KCl, 1.8 mM CaCl2, 0.8 mM MgSO4, 0.9 mM NaH2PO4, 25 mM glucose, 20 mM HEPES, pH 7.4) containing bovine serum albumin (1% w/v).
On the day of the experiment, the cells seeded in black plates were treated with assay buffer containing the Ca^2+sensitive fluorescent dye Fluo-4-AM (2 μM), and probenecid (0.1 mM). After 1 h plates were washed twice with, and resuspended in, assay buffer containing probenecid (0.1 mM) using a multi plate washer. The plates were placed into a FLIPR II (Fluorometric Imaging Plate Reader, Molecular Devices, Sunnyvale, Calif., USA) and baseline fluorescence (fluorescence light units, FLU) was measured (5 measurements, 2 S each; laser excitation 488 nm at 0.6-1 W, CCD camera exposure 0.4 s) before addition of buffer alone (basal) or containing test compounds (either compound of formula I alone, agonist alone or agonist in the presence of various concentrations of compounds of formula I). Fluorescence measurements were then continued every 1 S for 120 S followed by every 4 S for 240 S.
(§5) Compounds of formula I were tested usually in a concentration range from 10^−9 M to 10^−5 M. In the second round, performed one hour later (to allow for equilibration), Orexin A was tested either in the absence (calibration curves, Orexin A agonist controls) or in the presence of compounds of formula I to determine antagonism.
Inhibition data is expressed in Table 2 as Ki [μM], converted by the Cheng and Prusoff correction (Ki=IC50/1+(L/EC50)), where IC50 is the 50% inhibition value determined in concentration response inhibition curves, EC50 is the half maximal activation concentration determined for orexin A in concentration response curves and L is the concentration of orexin A used in inhibition experiments performed in with a submaximal concentration of orexin A in the presence of up to 8 increasing concentrations of compound of formula I. Inhibition data is also expressed in Table 2 as % inhibition value measured at a concentration of 10 μM of selected compounds of formula I.

For assay [2], the target named is T2, human orexin 2 receptors (Homo sapiens, UniProt O43614).
T2 sequence (O43614 1-444): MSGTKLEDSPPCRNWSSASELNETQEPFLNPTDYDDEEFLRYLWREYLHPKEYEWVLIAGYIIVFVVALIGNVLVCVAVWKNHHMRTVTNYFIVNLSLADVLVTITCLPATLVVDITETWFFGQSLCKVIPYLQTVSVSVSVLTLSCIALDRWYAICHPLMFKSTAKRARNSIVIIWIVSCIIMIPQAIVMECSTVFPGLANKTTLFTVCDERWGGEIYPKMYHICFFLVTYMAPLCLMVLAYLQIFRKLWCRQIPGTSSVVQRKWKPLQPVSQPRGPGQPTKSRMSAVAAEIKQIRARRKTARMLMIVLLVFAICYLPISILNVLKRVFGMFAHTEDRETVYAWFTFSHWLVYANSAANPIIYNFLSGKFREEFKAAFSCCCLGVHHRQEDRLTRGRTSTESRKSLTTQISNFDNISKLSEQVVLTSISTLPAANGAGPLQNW
The assay can be described thus: Radioligand binding assay ([3H]-SB649868 competition), hOx2R. Particulars: competition with about 1 nM [3H]-SB649868; CHO or HEK cell membranes expressing human orexin 2 receptor; read-out: binding hOx2R Kd. The procedure:
(§1) The cell pellet was either stored at −80° C. or used directly. Before the experiments, cell membranes were re-suspended in binding assay buffer (10 mM HEPES, 0.5% (w/v) bovine serum albumin, pH 7.5) by homogenisation with a Polytron homogeniser at 50 Hz for 20 s. Cell membranes were also used as made available by commercial providers.
(§2) Bound radioactivity was measured, and data were analysed with the program XLFIT or Graphpad Prism. Protein concentration was determined according to the Bradford/BioRad Protein Assay Kit.
(§3) In competition experiments, cell homogenates (150 μl) were incubated in assay buffer (10 mM HEPES, pH 7.5, 0.5% (w/v) bovine serum albumin, 5 mM MgCl2, 1 mMCaCl2, and tween 0.05%) for 1 h at room temperature with about 1 nM of the radioligand [^3H]-SB649868, 66 Ci/mmole, 50 μl), and with various concentrations of compounds of the invention (50 μl) in triplicates; non-specific binding was determined in the presence of almorexant (10 μM).

Assay [3] concerns the target T1, human orexin 1 receptors. As to the kind of experiment: Radioligand binding assay ([3H]-SB649868 competition), hOx1R. As to conditions: competition with about 1 nM [3H]-SB649868; CHO or HEK cell membranes expressing human orexin 1 receptor. The procedure: as §1, §2
as §3, with “μM). Reactions were terminated by vacuum filtration, 3 washes of ice cold wash buffer (Tris-HCl pH 7.4/10 mM, with NaCl 154 mM). Competition data is expressed in Table 2 as Kd [μM].” for “μM).”

Assay [4] addresses T2, human orexin 2 receptors. The assay can be described thus: Calcium accumulation in cells (FLIPR), hOx2R. It counts as cell-based. Particulars: cells expressing human orexin 2 receptor; inhibition of orexin A-induced calcium accumulation; Cheng and Prusoff correction.
Method: as §4
On the day of the experiment, the cells seeded in black plates were treated with assay buffer containing the Ca^2+sensitive fluorescent dye Fluo-4-AM (2 μM), and probenecid (0.1 mM). After 1 h plates were washed twice with, and resuspended in, assay buffer containing probenecid (0.1 mM) using a multi plate washer. […] Fluorescence measurements were then continued every 1 S for 120 S followed by every 4 S for 240 S.
The measurements were typically made in two sequences:
as §5

As to `Cc1cncc(N2CCC3(CCCC(=O)N3Cc3c[nH]c4ccccc34)CC2)n1` [Example 7, 1-((1H-indol-3-yl)methyl)-9-(6-methylpyrazin-2-yl)-1,9-diazaspiro[5.5]undecan-2-one], on human orexin 1 receptors [1] (read-out: FLIPR hOx1R % inhibition value), the inhibition (as a rule, the percentage by which the read-out fell short of the control) at 10 µM was found to be 14%. Besides, the Kd (in general, the free concentration of one partner at which half of the binding sites on the other are occupied at equilibrium, for simple one-to-one binding) was 698 nM on human orexin 2 receptors [2] and 7440 nM on human orexin 1 receptors [3]. In addition, on human orexin 2 receptors [4], the Ki – broadly, the equilibrium dissociation constant of an inhibitor or competing ligand from its target – turned out to be 86 nM.
For `Cc1cccc(N2CCC3(CCCN(Cc4c[nH]c5ccccc45)C3=O)CC2)n1` [Example 9, 2-((1H-indol-3-yl)methyl)-9-(6-methylpyridin-2-yl)-2,9-diazaspiro[5.5]undecan-1-one], the Ki was 1560 nM at human orexin 1 receptors [1] and 54 nM at human orexin 2 receptors [4]. Further, the Kd on human orexin 2 receptors [2] came to 265 nM; on human orexin 1 receptors [3], 2430 nM.
For `N#Cc1ccnc(N2CCC3(CCCN(Cc4c[nH]c5ccccc45)C3=O)CC2)c1` [Example 10, 2-(2-((1H-indol-3-yl)methyl)-1-oxo-2,9-diazaspiro[5.5]undecan-9-yl)isonicotinonitrile], in that order: 1190 nM, 20 nM, 116 nM and 1720 nM.
For `Cc1cncc(N2CCC3(CCCN(Cc4c[nH]c5ccccc45)C3=O)CC2)n1` [Example 11, 2-((1H-indol-3-yl)methyl)-9-(6-methylpyrazin-2-yl)-2,9-diazaspiro[5.5]undecan-1-one], in that order: 1390 nM, 23 nM, 244 nM and 6590 nM.
For `Cc1ccnc(N2CCC3(CCCN(Cc4c[nH]c5ccccc45)C3=O)CC2)n1` [Example 12, 2-((1H-indol-3-yl)methyl)-9-(4-methylpyrimidin-2-yl)-2,9-diazaspiro[5.5]undecan-1-one], in that order: 1500 nM, 30 nM, 56 nM and 1170 nM.
On to `Cc1cc(C)nc(N2CCC3(CCCN(Cc4ccccc4-c4ccco4)C3=O)CC2)n1` [Example 15, 9-(4,6-dimethylpyrimidin-2-yl)-2-(2-(furan-2-yl)benzyl)-2,9-diazaspiro[5.5]undecan-1-one], for which the Ki came to 855 nM at human orexin 1 receptors [1] and 13 nM on human orexin 2 receptors [4]. In addition, the Kd turned out to be 109 nM at human orexin 2 receptors [2] and 2830 nM at human orexin 1 receptors [3].
The corresponding values for `Cc1cc(C)nc(N2CCC3(CCCN(Cc4cccc5c4OCCO5)C3=O)CC2)n1` [Example 20, 2-((2,3-dihydrobenzo[b][1,4]dioxin-5-yl)methyl)-9-(4,6-dimethylpyrimidin-2-yl)-2,9-diazaspiro[5.5]undecan-1-one] are 2530 nM, 42 nM, 211 nM and 8550 nM.
The corresponding values for `Cc1cc(C)nc(N2CCC3(CCCN(Cc4cccc(-c5noc(C)n5)c4)C3=O)CC2)n1` [Example 22, 9-(4,6-dimethylpyrimidin-2-yl)-2-(3-(5-methyl-1,2,4-oxadiazol-3-yl)benzyl)-2,9-diazaspiro[5.5]undecan-1-one] are 755 nM, 31 nM, 151 nM and 1300 nM.
The corresponding values for `Cc1cc(C#N)cc(N2CCC3(CCCN(Cc4cccc(-c5ncccn5)c4)C3=O)CC2)n1` [Example 28, 2-methyl-6-(1-oxo-2-(3-(pyrimidin-2-yl)benzyl)-2,9-diazaspiro[5.5]undecan-9-yl)isonicotinonitrile] are 1110 nM, 49 nM, 150 nM and 5140 nM.
Turning to `Cc1cc(C#N)cc(N2CCC3(CCCN(Cc4cccc(-c5ncc(C)o5)c4)C3=O)CC2)n1` [Example 29, 2-methyl-6-(2-(3-(5-methyloxazol-2-yl)benzyl)-1-oxo-2,9-diazaspiro[5.5]undecan-9-yl)isonicotinonitrile], the Ki at human orexin 1 receptors [1] worked out at 351 nM; at human orexin 2 receptors [4], 28 nM. The Kd was determined as 100 nM on human orexin 2 receptors [2] and 907 nM at human orexin 1 receptors [3].
For `Cc1cc(C)nc(N2CCC3(CCCN(Cc4cccc(-c5ncccn5)c4)C3=O)CC2)n1` [Example 31, 9-(4,6-dimethylpyrimidin-2-yl)-2-(3-(pyrimidin-2-yl)benzyl)-2,9-diazaspiro[5.5]undecan-1-one], in that order: 1610 nM, 92 nM, 145 nM and 3810 nM.
For `Cc1cc(C#N)nc(N2CCC3(CCCN(Cc4cccc(-c5ncccn5)c4)C3=O)CC2)n1` [Example 32, 6-methyl-2-(1-oxo-2-(3-(pyrimidin-2-yl)benzyl)-2,9-diazaspiro[5.5]undecan-9-yl)pyrimidine-4-carbonitrile], in that order: 1860 nM, 59 nM, 383 nM and more than 10000 nM.
For `N#Cc1ccnc(N2CCC3(CCCN(Cc4cccc(-c5ncccn5)c4)C3=O)CC2)n1` [Example 33, 2-(1-oxo-2-(3-(pyrimidin-2-yl)benzyl)-2,9-diazaspiro[5.5]undecan-9-yl)pyrimidine-4-carbonitrile], in that order: 477 nM, 37 nM, 220 nM and 744 nM.
Consider `N#Cc1cccc(N2CCC3(CCCN(Cc4cccc(-c5ncccn5)c4)C3=O)CC2)n1` [Example 34, 6-(1-oxo-2-(3-(pyrimidin-2-yl)benzyl)-2,9-diazaspiro[5.5]undecan-9-yl)picolinonitrile], for which the results for the Ki on human orexin 1 receptors [1] and on human orexin 2 receptors [4] were 554 nM and 73 nM, respectively. Moreover, the dissociation constant (Kd) on human orexin 2 receptors [2] came to 674 nM; at human orexin 1 receptors [3] it was 2290 nM.
With `N#Cc1ccnc(N2CCC3(CCCN(Cc4cccc(-c5ncccn5)c4)C3=O)CC2)c1` [Example 35, 2-(1-oxo-2-(3-(pyrimidin-2-yl)benzyl)-2,9-diazaspiro[5.5]undecan-9-yl)isonicotinonitrile], the Ki at human orexin 1 receptors [1] is 868 nM; at human orexin 2 receptors [4], 45 nM. Besides, the Kd amounted to 98 nM on human orexin 2 receptors [2] and 394 nM on human orexin 1 receptors [3].
The corresponding values for `Cc1cc(C)nc(N2CCC3(CCCN(Cc4cccc(-c5ncc(C)o5)c4)C3=O)CC2)n1` [Example 36, 9-(4,6-dimethylpyrimidin-2-yl)-2-(3-(5-methyloxazol-2-yl)benzyl)-2,9-diazaspiro[5.5]undecan-1-one] are 714 nM, 38 nM, 89 nM and 431 nM.
The corresponding values for `Cc1cc(C#N)nc(N2CCC3(CCCN(Cc4cccc(-c5ncc(C)o5)c4)C3=O)CC2)n1` [Example 37, 6-methyl-2-(2-(3-(5-methyloxazol-2-yl)benzyl)-1-oxo-2,9-diazaspiro[5.5]undecan-9-yl)pyrimidine-4-carbonitrile] are 1890 nM, 79 nM, 1160 nM and more than 10000 nM.
The corresponding values for `Cc1ccnc(N2CCC3(CCCN(Cc4cccc(-c5ncc(C)o5)c4)C3=O)CC2)n1` [Example 38, 2-(3-(5-methyloxazol-2-yl)benzyl)-9-(4-methylpyrimidin-2-yl)-2,9-diazaspiro[5.5]undecan-1-one] are 924 nM, 43 nM, 177 nM and 1190 nM.
